Assay [1] relates to human leukemia cells (CCRF-CEM cell line). In words: growth inhibition (cytotoxicity) of human leukemia cells, Table 1. It counts as cell-based. The note with it: IC50 less than 20 μg/ml is considered active; for IC50: Homo sapiens, read-out: IC50 (concentration giving 50 percent growth inhibition). From the text: 38, 2886 (1978). The representative compounds of formula I employed in the present invention are cytotoxic as They inhibit the growth of rapidly dividing human leukemia cells (CCRF-CEM cell line). Table 1 below gives the results of testing several compounds representative of formula I. In Table 1, Column 1 gives the representative compound and Column 2 gives the IC50 (concentration giving 50 percent growth inhibition) in μg/ml.

For a further assay, the system named is HSV-1. Put plainly: plaque inhibition of HSV-1 in African green monkey kidney cells (BSC-1), Table 2. It counts as cell-based, Herpes simplex virus, type I. The note with it: 72 hours at 37° C., IC50 less than 20 μg/ml is considered active; for IC50: Human alphaherpesvirus 1, BSC-1 cells, read-out: HSV-1 IC50 (concentration giving 50 percent growth inhibition; plaque inhibition).

For the next assay, the system named is HSV-2. In words: plaque inhibition of HSV-2 in African green monkey kidney cells (BSC-1), Table 2. The note with it: 72 hours at 37° C., IC50 less than 20 μg/ml is considered active; for IC50: Human alphaherpesvirus 2, BSC-1 cells, read-out: HSV-2 IC50 (concentration giving 50 percent growth inhibition; plaque inhibition). In kind it is cell-based, Herpes simplex virus, type II.

≈ marks a conversion by molar mass, not a printed value.

For `NNc1ccn([C@@H]2O[C@H](CO)[C@@H](O)C2(F)F)c(=O)n1` [Example 5, β-1-(2-Oxo-4-hydrazino-1,2-dihydropyrimidin-1-yl)-2-deoxy-2,2-difluororibose], the IC50 in assay [1] was 0.077 µg/mL (≈ 0.277 µM); in the assay on HSV-1 it was 3.12 µg/mL (≈ 11.2 µM); in the assay with HSV-2 it was 4.35 µg/mL (≈ 15.6 µM).

`CNNc1ccn([C@@H]2O[C@H](CO)[C@@H](O)C2(F)F)c(=O)n1` [Example 10, β-1-[2-Oxo-4-(2-methylhydrazino)-1,2-dihydropyrimidin-1-yl]-2-deoxy-2,2-difluororibose]: the IC50 in assay [1] came out at 4.1 µg/mL (≈ 14 µM).

Turning to `O=c1nc(NCO)ccn1[C@@H]1O[C@H](CO)[C@@H](O)C1(F)F` [Example 7, β-1-(2-Oxo-4-hydroxymethylamino-1,2-dihydropyrimidin-1-yl)-2-deoxy-2,2-difluororibose], the “IC50 (concentration giving 50 percent growth inhibition)” value in assay [1] was determined as 0.3 µg/mL (≈ 1.02 µM). The “HSV-1 IC50 (concentration giving 50 percent growth inhibition; plaque inhibition)” value with HSV-1 (BSC-1 cells) stood at 18.0 µg/mL. In addition, the “HSV-2 IC50 (concentration giving 50 percent growth inhibition; plaque inhibition)” value in the assay on HSV-2 (BSC-1 cells) came to 11.1 µg/mL.

As to `CCOC(=O)Nc1ccn([C@@H]2O[C@H](CO)[C@@H](O)C2(F)F)c(=O)n1` [Example 6, β-1-(2-Oxo-4-aminocarboethoxy-1,2-dihydropyrimidin-1-yl)-2-deoxy-2,2-difluororibose], the IC50 came to 0.051 µg/mL (≈ 0.152 µM) in assay [1], 0.53 µg/mL (≈ 1.58 µM) in the assay on HSV-1 and 0.58 µg/mL (≈ 1.73 µM) in the assay on HSV-2.

`O=c1[nH]nc2ccn([C@@H]3O[C@H](CO)[C@@H](O)C3(F)F)c(=O)n12` [Example 4, 6-(2-deoxy-2,2-difluoro-β-D-ribofuranosyl)-1,2,4-triazolo[4,3c]pyrimidine-3,5(2H,6H)-dione]: the results for the IC50 (in assay [1]; in the assay on HSV-1; in the assay with HSV-2) were 0.2 µg/mL (≈ 0.657 µM), 6 µg/mL (≈ 19.7 µM) and 4.9 µg/mL (≈ 16.1 µM), respectively.

As to `O=c1n([C@@H]2O[C@H](CO)[C@@H](O)C2(F)F)ccc2nnnn12` [Example 2, 6-(2-deoxy-2,2-difluoro-β-D-ribofuranosyl)-1,2,3,4-tetrazolo[1,5-c]pyrimidine-5(6H) -one], the figures for the IC50 (in assay [1]; in the assay with HSV-1; with HSV-2) were 0.5 µg/mL (≈ 1.73 µM), 8 µg/mL (≈ 27.7 µM) and 9.25 µg/mL (≈ 32 µM), respectively.

Regarding `CCOC(=O)C(C)Nc1ccn([C@@H]2O[C@H](CO)[C@@H](O)C2(F)F)c(=O)n1` (stereo partly drawn) [Example 11, β-1-(2-oxo-4-N-alanineethyl ester-1,2-dihydropyrimidin-1-yl)-2-deoxy-2,2-difluororibose], the “IC50 (concentration giving 50 percent growth inhibition)” value in assay [1] was 6.3 µg/mL (≈ 17.3 µM).

On to `O=c1nc(NO)ccn1[C@@H]1O[C@H](CO)[C@@H](O)C1(F)F` [Example 1, β-1-(2-Oxo-4-hydroxyamino-1,2-dihydropyrimidin-1-yl)-2-deoxy-2,2-difluororibose], for which the IC50 in assay [1] amounted to 0.086 µg/mL (≈ 0.308 µM); with HSV-1, 0.7 µg/mL (≈ 2.51 µM); in the assay on HSV-2 it was 1.07 µg/mL (≈ 3.83 µM).

Regarding `O=C(O)CNc1ccn([C@@H]2O[C@H](CO)[C@@H](O)C2(F)F)c(=O)n1` [Example 9, β-1-(2-Oxo-4-N-glycinyl-1,2-dihydropyrimidin-1yl)-2-deoxy-2,2-difluororibose], the IC50 in assay [1] amounted to 0.4 µg/mL (≈ 1.25 µM).

Take `CCOC(=O)CNc1ccn([C@@H]2O[C@H](CO)[C@@H](O)C2(F)F)c(=O)n1` [Example 8, β-1-(2-Oxo-4-N-glycineethyl ester-1,2-dihydropyrimidin-1-yl)-2-deoxy-2,2-difluororibose]: the IC50 in assay [1] was found to be 18.4 µg/mL (≈ 52.7 µM).

For the origin of these results see patent US5430026A, “2'-deoxy-2',2'-difluoro (4-substituted pyrimidine) nucleosides, bicyclic derivatives,pharmaceutical compositions, and synthetic precursors” (Eli Lilly and Company, priority 1993, dated 1995).
